Laboratory results taken from the NIST ThermoML archive (doi:10.1021/acs.jced.9b00334).

Conditions: Liquid, Vibrating tube method

CCn1cc[n+](C)c1.CCn1cc[n+](C)c1.[Co+2].[N-]=C=S.[N-]=C=S.[N-]=C=S.[N-]=C=S [bis(1-ethyl-3-methylimidazolium) tetrathiocyanatocobaltate]
mass density [kg/m3]
Conditions	283.1 K	293.1 K	303.1 K	313.2 K	323.2 K	333.2 K	343.1 K	353.1 K	363.1 K
100 kPa	1286.1	1278.7	1271.5	1264.4	1257.3	1250.3	1243.3	1236.4	1229.5
1000 kPa	1286.5	1279.1	1272	1264.9	1257.8	1250.7	1243.7	1236.9	1230.1
2000 kPa	1287	1279.6	1272.5	1265.3	1258.4	1251.3	1244.3	1237.5	1230.6
5000 kPa	1288.4	1281.1	1273.9	1266.8	1259.9	1253	1246	1239.2	1232.4
7000 kPa	1289.3	1282.1	1274.9	1267.9	1260.9	1253.9	1247	1240.3	1233.5
10000 kPa	1290.6	1283.4	1276.3	1269.4	1262.5	1255.3	1248.6	1241.7	1235.1
15000 kPa	1292.8	1285.7	1278.6	1271.7	1265	1257.9	1251.3	1244.3	1237.7
20000 kPa	1295	1287.9	1281	1274.1	1267.3	1260.1	1253.7	1246.9	1240.4
25000 kPa	1297.1	1290	1283.1	1276.3	1269.6	1262.7	1256	1249.4	1243
30000 kPa	1299.1	1292.1	1285.4	1278.7	1271.9	1265.1	1258.3	1251.9	1245.6
35000 kPa	1301.1	1294.3	1287.6	1280.9	1274.1	1267.5	1260.6	1254.3	1248.2
40000 kPa	1303.2	1296.3	1289.6	1282.9	1276.4	1269.5	1263	1256.7	1250.5
45000 kPa	1305.2	1298.4	1291.7	1285.1	1278.6	1272	1265.5	1259.1	1252.7
50000 kPa	1307.2	1300.5	1294	1287.4	1280.8	1274.2	1267.7	1261.2	1254.9
55000 kPa	1309	1302.5	1295.9	1289.5	1282.9	1276.4	1269.6	1263.6	1257.2
60000 kPa	1311	1304.3	1297.9	1291.4	1285	1278.4	1271.8	1265.7	1259.4
65000 kPa	1312.9	1306.3	1299.7	1293.3	1287	1280.4	1274.1	1267.7	1261.6
70000 kPa	1314.8	1308.3	1301.7	1295.3	1288.9	1282.4	1275.9	1269.9	1263.7
75000 kPa	1316.6	1310.2	1303.7	1297.2	1290.9	1284.6	1277.9	1272	1265.8
80000 kPa	1318.3	1312.2	1305.4	1299	1292.8	1286.5	1280.2	1274.2	1267.8
85000 kPa	1320	1313.9	1307.4	1301.1	1294.7	1288.6	1282.4	1276.1	1270.1
90000 kPa	1321.9	1315.6	1309.4	1302.9	1296.8	1290.4	1284.3	1278.2	1272.1
95000 kPa	1323.8	1317.5	1311	1304.8	1298.7	1292.5	1286.1	1280.2	1273.8
